Measurements: patent US8632832B2, “Direct dissolution” (Phares Pharmaceutical Research N.V., priority 2005, dated 2014)

How the values were obtained:
[1] = Degree of dissolution of the carotenoid in the oily phase: filtration through a 0.45 μm pore size filter, then HPLC of the filtrate; assay type: physicochemical
Experimental: “Dissolving” or “dissolution” means obtaining molecular dispersions or molecular aggregates of a carotenoid which may be monomers, dimers, trimers etc and/or colloidal dispersions of the carotenoid. Assessment of the degree of dissolution of the carotenoid in an oily phase is performed by filtration of the oily phase through a 0.45 μm pore size filter, followed by HPLC determination of the carotenoid content in the filtrate and compared with the total carotenoid concentration in the unfiltered oily phase. “Substantially” means at least 40 wt %.
(§1) The oily astaxanthin solution may be further processed by mixing with fish feed pellets.

[2] = HPLC analysis of trans/cis isomer content and degradation products after in-line heating and cooling; assay type: physicochemical; details: 1 s
Text: as §1

[3] = Example 2: 1500 or 250 ppm astaxanthin composition, heated 150° C., then cooled

For CC1=C(/C=C/C(C)=C/C=C/C(C)=C/C=C/C=C(C)/C=C/C=C(C)/C=C/C2=C(C)C(=O)[C@@H](O)CC2(C)C)C(C)(C)C[C@H](O)C1=O [astaxanthin], the “degree of dissolution of astaxanthin after filtration through 0.45 μm filter (HPLC)” value ([1]; Example 2: 1500 or 250 ppm astaxanthin composition in soya bean oil/fish oil, heated 150° C., transit time 1 s, then cooled) was “completely solubilised”, the “degree of dissolution of astaxanthin after filtration through 0.45 μm filter (HPLC)” value ([1]; Example 3: 250 ppm astaxanthin composition in soy bean oil/fish oil, heated 126° C., 1 s, then cooled with fish oil of 23° C.) was “completely solubilised” and the all trans-astaxanthin content [2, 3] was 75%. The cis isomers content [2, 3] was 25%, the further degradation products [2, 3] was “no further degradation products” and the cis-isomers content ([2]; Example 3: 250 ppm astaxanthin composition, heated 126° C., then cooled with fish oil of 23° C.) was 12%.
